One series relates to K562 cells. The series is described as follows: In vitro proliferation counterscreen, Mcl-1 insensitive K562. The conditions noted are these: Homo sapiens; Mcl-1 insensitive K562; top concentration tested 12.5 µM. Type of series: cell-based. The procedure: NCI-H929, A427, and K562 cell lines were obtained from ATCC.
(§1) Suspension cells were plated immediately before compound addition. Adherent cell lines were incubated overnight at 37 °C in a tissue culture incubator prior to compound addition. Compounds were added in triplicates using an HP D300e Digital Dispenser (Hewlett-Packard) or manually at the concentrations indicated and total volumes were normalized using DMSO backfill, with final DMSO concentration of 0.5%. Control wells were treated with DMSO only. Following incubation for 72 or 96 h, a Cell Titer-Glo assay was conducted following the manufacturer recommendations (Promega, G9243) and luminescence was measured using a Victor X5 (PerkinElmer) or a Cytation 3 (Biotek) plate reader. % Viability was defined as relative luminescence units (RLU) of each well divided by the RLU of cells on day 0.

A short description of series [1]: Kinetic aqueous solubility. Type of series: physicochemical.
The subject of a further series is NCI-H929 cells. The series is described as follows: In vitro proliferation assay (CellTiter-Glo), H929. The conditions noted are these: Homo sapiens. Type of series: cell-based. As to the method: (§2) NCI-H929, A427, and K562 cell lines were obtained from ATCC. NCI-H929 cells were cultured in RPMI1640 (ATCC-formulated, Catalog No. 30-2001) + 10% fetal calf serum (FCS, GIBCO BRL, Cat. No. 26140) + 0.05 mM mercaptoethanol. A-427 cells were cultured in RPMI1640 (ATCC-formulated, Catalog No. 30-2001) + 10% fetal calf serum (FCS, GIBCO BRL, Cat. No. 26140). K562 cell lines were cultured in Iscove’s Modified Dulbecco Medium (Gibco-formulated, purchased from Thermo-Fisher, Cat. No. 12440-053) + 10% fetal bovine serum (FBS, Sigma-Aldrich, F2442). All cell lines were cultured at 37 °C with 5% CO2 in a humidified incubator and have been regularly tested negatively for mycoplasm contamination.
as §1, with “Cells were seeded at 750–1500 cells per well (depending on growth kinetics) in 384-well plates (Corning, Catalog No. 3707) or at 3000 cells per well in 96-well plates in the respective growth medium and allowed to settle overnight. Suspension cells” for “Suspension cells”, “day 0. Four parameter sigmoidal dose–response curves were generated and IC50 values were determined using XLFit (IDBS) software (eq 205) or in-house software. Drug combination experiments were performed in 96-well or 384-well format and drug synergy was determined using the BLISS model (PMID: 26171228).” for “day 0.”

A further series concerns the target T1, Mcl-1 (Homo sapiens, UniProt Q07820).
T1 construct: Briefly, a previously reported construct was subcloned into an expression vector (pDEST-HisMBP); MBP (from vector pDEST-HisMBP); made in house; host or cells: Escherichia coli BL21 CodonPlus (DE3) RIL
Put plainly: TR-FRET binding assay (FITC-Bak peptide competition). From the text:
Protein preparation was described previously. Briefly, a previously reported construct was subcloned into an expression vector (pDEST-HisMBP) expressed in Escherichia coli BL21 CodonPlus (DE3) RIL (Stratagene) and purified through nickel-column and size-exclusion chromatography sequentially.
Mixtures containing vehicle without compound served as a negative control, while mixtures containing no protein served as a positive control. […] Two or more repeats were obtained and average K i values are reported.

The test system of another series is A427 cells. Put plainly: In vitro proliferation assay (CellTiter-Glo), A427. It counts as cell-based. The conditions noted are these: Homo sapiens, A-427. As to the method:
as §2
as §1, with “Cells were seeded at 750–1500 cells per well (depending on growth kinetics) in 384-well plates (Corning, Catalog No. 3707) or at 3000 cells per well in 96-well plates in the respective growth medium and allowed to settle overnight. Suspension cells” for “Suspension cells”, “day 0. Four parameter sigmoidal dose–response curves were generated and IC50 values were determined using XLFit (IDBS) software (eq 205) or in-house software. Drug combination experiments were performed in 96-well or 384-well format and drug synergy was determined using the BLISS model (PMID: 26171228).” for “day 0.”

Series [2] is described as follows: Mouse pharmacokinetic analyses (i.v. and oral). Type of series: in vivo. As to conditions: plasma, iv. As to the method: For PK analysis, mice were administered intravenously or orally with compound formulated in 10% ethanol and 10% Cremophor EL. Compound 13 dosing was also screened with 20% Phosphal IPG, 20% Phosphal MCT, 10% HP-β-CD, and 40% HP-β-CD. Plasma samples were obtained at predefined time points and compound concentrations in plasma were measured by quantitative HPLC–MS/MS using an internal standard. Calibration and quality control samples were prepared using blank plasma from untreated animals. Samples were precipitated with acetonitrile and injected into a HPLC system (Agilent 1200). Separation was performed by gradients of 5 mmol/L ammonium acetate pH 5.0 and acetonitrile with 0.1% formic acid on a Luna C8 reversed-phase column with 2.5 μm particles (Phenomenex). The HPLC was interfaced by ESI operated in positive ionization mode to a triple quadrupole mass spectrometer (6500+ Triple Quad System, SCIEX) operated in multiple reaction monitoring mode. Chromatograms were analyzed with Analyst (SCIEX) and pharmacokinetic parameters were calculated by noncompartmental analysis using proprietary software.

Series [3] concerns caspase 3/7 in A427 cells. The series is described as follows: Caspase 3/7 induction assay (Caspase-Glo), A427. Type of series: cell-based. The conditions noted are these: compound treatment for 3 h; for EC50: Homo sapiens, A-427. The procedure: (§3) Cells were treated with a 10-point compound titration and incubated at 37 °C for 3 h.
Series [4] deals with caspase 3/7 in H929 cells. Put plainly: Caspase 3/7 induction assay (Caspase-Glo), H929. Type of series: cell-based. As to conditions: compound treatment for 3 h; for EC50: Homo sapiens, NCI-H929. The procedure: as §3
The subject of series [5] is caspase 3/7 in K562 cells. The series is described as follows: Caspase 3/7 induction assay (Caspase-Glo), K562. Type of series: cell-based. The conditions noted are these: compound treatment for 3 h; for EC50: Homo sapiens, K562. The procedure: as §3
Where [6] appears, read: H929 cell line, average of at least n = 2, triplicate.
[7] abbreviates: in the presence of 1% fetal bovine serum, average of at least n = 2, read-out: TRFRET, Mcl-1 Ki.
Where [8] appears, read: A427 cell line, average of at least n = 2, triplicate.
Where [9] appears, read: dosed at 20 mg/kg, read-out: i.v. mouse CL.
Where [10] appears, read: supplementary CSV, unit not given (Table 1: 20 mg/kg, 14 and 16 at 10 mg/kg), read-out: CL.
The mark [11] stands for this setting: supplementary CSV, unit inferred.
Setting [12] is: supplementary CSV, unit inferred, read-out: Ki TRFRET.

Values after ≈ are worked out from the molar mass of the structure shown. Values joined by “and” are separate entries in the source; they are usually repeats but may differ in a detail not shown here. Equal values may be shown once. Read-outs that look alike come from different tables or passages of the source.

T1 sequence (Q07820 whole entry): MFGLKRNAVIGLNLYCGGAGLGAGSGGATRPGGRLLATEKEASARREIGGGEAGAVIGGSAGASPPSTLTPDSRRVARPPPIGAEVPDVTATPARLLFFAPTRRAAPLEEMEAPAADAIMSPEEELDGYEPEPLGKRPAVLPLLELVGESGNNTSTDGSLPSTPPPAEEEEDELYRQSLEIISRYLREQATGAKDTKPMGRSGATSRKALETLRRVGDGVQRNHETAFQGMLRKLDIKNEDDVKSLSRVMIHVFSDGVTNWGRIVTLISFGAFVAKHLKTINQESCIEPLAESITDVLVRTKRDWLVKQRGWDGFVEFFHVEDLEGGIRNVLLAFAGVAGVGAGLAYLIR

With `COc1cc2c3c(cc(C(=O)O)n3CCCOCc3ccncc3-c3c(Cl)ccc4c(CCCOc5cc(C)c(Cl)c(C)c5)c5n(c34)[C@H](C)CN2C5=O)c1OC` [Compound 22, (2^63^4 S a ,1^72^2 R a ,2^4 R)-2^7-Chloro-2^10-(3-(4-chloro-3,5-dimethylphenoxy)propyl)-1^4,1^5-dimethoxy-2^4-methyl-2^1-oxo-2^1,2^2,23,24-tetrahydro-11H-5-oxa-2(2,6)-pyrazino[1,2-a]indola-1(7,1)-indola-3(3,4)-pyridinacyclooctaphane-1^2-carboxylic Acid], the GI50 (as a rule, the concentration that inhibits growth by half) with K562 cells is > 12500 nM; in the series with NCI-H929 cells (setting [6]), 29 ± 6 nM; in the series with A427 cells (setting [8]), 58 ± 4 nM. The solubility (kinetic) (in general, the concentration staying in solution when a stock, usually in DMSO, is diluted into the medium) in series [1] (aqueous medium, pH 6.8) worked out at 11 µg/mL (≈ 13.8 µM). For the same compound, the inhibitory constant (Ki) (as a rule, a measure of affinity in units of concentration, obtained from inhibition or displacement) at Mcl-1 (setting [7]) was 0.08 ± 0.01 nM. In addition, the clearance in series [2] (setting [9]) and in series [2] (setting [10]) was 3.5 mL/min/kg in each case.

Regarding `COc1cc2c3c(cc(C(=O)O)n3CCCOCc3nn(C)c(C)c3-c3c(Cl)ccc4c(CCCOc5cc(C)c(Cl)c(C)c5)c5n(c34)[C@H](C)CN2C5=O)c1OC` [Compound 10, (2^63^4 S a ,1^72^2 R a ,2^4 R)-2^7-Chloro-2^10-(3-(4-chloro-3,5-dimethylphenoxy)propyl)-1^4,1^5-dimethoxy-2^4,3^1,3^5-trimethyl-2^1-oxo-2^1,2^2,2^3,2^4-tetrahydro-1^1 H,3^1 H-5-oxa-2(2,6)-pyrazino[1,2-a]indola-1(7,1)-indola-3(4,3)-pyrazolacyclooctaphane-1^2-carboxylic Acid], the GI50 with K562 cells is > 9700 nM; in the series with NCI-H929 cells (setting [11]) it was 20 nM; in the series with A427 cells (setting [11]), 48 nM. In series [1] (aqueous medium at pH 6.8, pH 6.8), this compound showed a kinetic solubility of 2 µg/mL (≈ 2.45 µM). Further, at Mcl-1 (setting [7]), the Ki was 0.08 ± 0.01 nM. For the same compound, the EC50 (usually the concentration giving half of the maximal effect) is 11 nM in [3], 9 nM in series [4] and > 3120 nM in series [5]. Also, the “A427 Caspase 3/7 fold over vehicle (FoV)” value in [3] worked out at 13 fold. The “H929 Caspase 3/7 maximum activity, fold over vehicle (FoV)” value (shortened to “H929 Caspase 3/7 maximum activity, fold”) in [4] came to 16 fold. Moreover, the clearance in [2] (setting [9]) and in series [2] (setting [10]) was 6.6 mL/min/kg each time. Besides, the “K562 Caspase 3/7 fold over vehicle (FoV)” value in series [5] is reported as 1.4 fold.

With `Cc1cc2c3c(c1)cc(C(=O)O)n3CCCOCc1nn(C)cc1-c1c(Cl)ccc3c(CCCOc4cc(C)c(Cl)c(C)c4)c4n(c13)[C@H](C)CN2C4=O` [Compound 14, (2^63^4 S a ,1^72^2 R a ,2^4 R)-2^7-Chloro-2^10-(3-(4-chloro-3,5-dimethylphenoxy)propyl)-1^5,2^4,3^1-trimethyl-2^1-oxo-2^1,2^2,2^3,2^4-tetrahydro-1^1 H,3^1 H-5-oxa-2(2,6)-pyrazino[1,2-a]indola-1(7,1)-indola-3(4,3)-pyrazolacyclooctaphane-1^2-carboxylic Acid], the GI50 in the series on K562 cells was > 10200 nM; with NCI-H929 cells (setting [6]), 64 ± 17 nM; with A427 cells (setting [8]) it was 195 ± 14 nM. Further, the figures for the Ki on Mcl-1 (setting [7]) and on Mcl-1 (setting [12]) were < 0.08 nM and 0.03 nM, respectively. Moreover, the concentration for a half-maximal effect (EC50) in series [3] is 35 nM; in series [4], 45 nM; in series [5], > 3120 nM. Besides, in series [3], the “A427 Caspase 3/7 fold over vehicle (FoV)” value is listed as 16 fold. The “H929 Caspase 3/7 maximum activity, fold” value in series [4] is reported as 17 fold. For the same compound, the clearance was determined as 8.4 mL/min/kg in [2] (dosed at 10 mg/kg, read-out: i.v. mouse CL) and 8.4 mL/min/kg in series [2] (setting [10]). In series [5], the “K562 Caspase 3/7 fold over vehicle (FoV)” value turned out to be 1.3 fold.

Take `COc1cc2c3c(cc(C(=O)O)n3CCCOCc3nn(C)cc3-c3c(Cl)ccc4c(CCCOc5cc(C)c(Cl)c(C)c5)c5n(c34)[C@H](C)CN2C5=O)c1C` [Compound 17, (2^63^4 S a ,1^72^2 R a ,2^4 R)-2^7-Chloro-2^10-(3-(4-chloro-3,5-dimethylphenoxy)propyl)-1^5-methoxy-1^4,2^4,3^1-trimethyl-2^1-oxo-2^1,2^2,2^3,2^4-tetrahydro-1^1 H,3^1 H-5-oxa-2(2,6)-pyrazino[1,2-a]indola-1(7,1)-indola-3(4,3)-pyrazolacyclooctaphane-1^2-carboxylic Acid]: the results for the GI50 in the series on K562 cells, in the series with NCI-H929 cells (setting [6]) and in the series on A427 cells (setting [8]) were > 12500 nM, 23 ± 5 nM and 32 ± 7 nM, respectively. The compound further gave a solubility (kinetic) in [1] (aqueous medium, pH 6.8, pH 6.8) of 39 µg/mL (≈ 49.7 µM). Also, the results for the inhibition constant Ki at Mcl-1 (setting [7]) and on Mcl-1 (setting [12]) were < 0.08 nM and < 0.02 nM, respectively. Besides, the EC50 in series [3] is 12 nM; in [4], 16 nM; in series [5], > 3120 nM. Moreover, the “A427 Caspase 3/7 fold over vehicle (FoV)” value in [3] worked out at 16 fold. Besides, the “H929 Caspase 3/7 maximum activity, fold” value in series [4] was 16 fold and 16 (16) fold. Moreover, the clearance in series [2] (setting [9]) and in [2] (setting [10]) was 5.7 mL/min/kg in each case. Moreover, the “K562 Caspase 3/7 fold over vehicle (FoV)” value in [5] stood at 1.3 fold.

The record behind these values is publication PMC12434668 (Journal of Medicinal Chemistry, 2025).
